Literature values as cited in PubChem BioAssay AID1259409 (Chemical Carcinogenesis Research Information System (CCRIS), 2018).

System: rodent chemically induced tumor inhibition, incidence and multiplicity
Experiment: CCRIS tumor inhibitor studies

## CC1(C)[C@@H](O[C@H]2O[C@H](C(=O)O)[C@@H](O)[C@H](O)[C@H]2O[C@@H]2O[C@H](C(=O)O)[C@@H](O)[C@H](O)[C@H]2O)CC[C@]2(C)[C@H]3C(=O)C=C4[C@@H]5C[C@@](C)(C(=O)O)CC[C@]5(C)CC[C@@]4(C)[C@]3(C)CC[C@@H]12
Carcinogen: 7,12-DIMETHYLBENZ[A]ANTHRACENE, 57-97-6, Dose [Inhibitor]: 0, 0.05% IN DRINKING WATER BEGINNING 50 D PRIOR TO CARCINOGEN TREATMENT AND CONTINUING FOR THE DURATION OF STUDY (STUDY, Route [Inhibitor]: ORAL, Species: MOUSE, Strain/Sex: SENCAR/FEMALE, Target Tissue: Type of Lesion: SKIN: TUMOR, Dose [Carcinogen]: 40 NMOL IN 0.2 ML ACETONE ONCE, Promoter: 12-O-TETRADECANOYLPHORBOL-13-ACETATE, 16561-29-8
  tumour outcome (control, treated, inhibition, significance): 100%, 100%, 0%, not significant
Carcinogen: 7,12-DIMETHYLBENZ[A]ANTHRACENE, 57-97-6, Dose [Inhibitor]: 0, 0.05% IN DRINKING WATER FOR 50 D PRIOR TO CARCINOGEN TREATMENT (STUDY DURATION: 23 WK), Route [Inhibitor]: ORAL, Species: MOUSE, Strain/Sex: SENCAR/FEMALE, Target Tissue: Type of Lesion: SKIN: TUMOR, Dose [Carcinogen]: 40 NMOL IN 0.2 ML ACETONE ONCE, Promoter: 12-O-TETRADECANOYLPHORBOL-13-ACETATE, 16561-29-8
  tumour outcome (control, treated, inhibition, significance): 100%, 100%, 0%, not significant
Carcinogen: DIETHYLNITROSAMINE, 55-18-5, Dose [Inhibitor]: 0, 2 MG 3/WK FOR 32 WK BEGINNING 2 WK PRIOR TO CARCINOGEN TREATMENT (STUDY DURATION:32 WK), Route [Inhibitor]: INTRAMUSCULAR, Species: MOUSE, Strain/Sex: BALB/MALE, Target Tissue: Type of Lesion: LIVER :HEPATOCELLULAR CARCINOMA, Dose [Carcinogen]: 75 MG/KG 1/WK FOR 3 WK THEN 100 MG/KG 1/WK FOR 3 WK, Promoter: NONE USED
  tumour outcome (control, treated, inhibition, significance): 7/11 (64%), 3.14 (21%), 65%, p<0.05

## O=S(=O)([O-])[O-].O=S(=O)([O-])[O-].O=S(=O)([O-])[O-].[Mo]
Carcinogen: N-METHYL-N-BENZYLNITROSAMINE, 937-40-6, Dose [Inhibitor]: 0, 2 PPM IN DIET FOR 1 WK PRIOR TO CARCINOGEN (STUDY DURATION: 25 WK), Route [Inhibitor]: ORAL, Species: RAT, Strain/Sex: F344/MALE, Target Tissue: Type of Lesion: ESOPHAGUS: CARCINOMA, Dose [Carcinogen]: 2.5 MG/KG 1/WK FOR 20 WK
  tumour outcome (control, treated, inhibition, significance): 30/41 (73%), 20/45 (44%), 40%, p<0.01

## CCN(CC)CCCCCCCCOC(=O)c1cc(OC)c(OC)c(OC)c1
Carcinogen: 7,12-DIMETHYLBENZ[A]ANTHRACENE, 57-97-6, Dose [Inhibitor]: 0, 1.1 UMOL 1/WK FOR 27 WK APPLIED 1 HR POST EACH PROMOTER DOSE (STUDY DURATION: 27 WK), Route [Inhibitor]: DERMAL, Species: MOUSE, Strain/Sex: SENCAR/FEMALE, Target Tissue: Type of Lesion: SKIN: PAPILLOMA, Dose [Carcinogen]: 25 NMOL ONCE, Promoter: CHRYSAROBIN, 491-58-7
  tumour outcome (control, treated, inhibition, significance): 85%, 73%, 14%, not significant
Carcinogen: 7,12-DIMETHYLBENZ[A]ANTHRACENE, 57-97-6, Dose [Inhibitor]: 0, 4.4 UMOL 1/WK FOR 27 WK APPLIED 1 HR POST EACH PROMOTER DOSE (STUDY DURATION: 27 WK), Route [Inhibitor]: DERMAL, Species: MOUSE, Strain/Sex: SENCAR/FEMALE, Target Tissue: Type of Lesion: SKIN: PAPILLOMA, Dose [Carcinogen]: 25 NMOL ONCE, Promoter: CHRYSAROBIN, 491-58-7
  tumour outcome (control, treated, inhibition, significance): 85%, 82%, 4%, not significant

## CC(C)c1cc2c(c(O)c1O)[C@@]13CCCC(C)(C)[C@@H]1C[C@@H]2OC3=O
Carcinogen: 7,12-DIMETHYLBENZ[A]ANTHRACENE, 57-97-6, Dose [Inhibitor]: 0, 1 UMOL IN 200 µL ACETONE 2/WK FOR 20 WK BEGINNING 1 WK POST CARCINOGEN DOSE (STUDY DURATION: 20 WK), Route [Inhibitor]: DERMAL, Species: MOUSE, Strain/Sex: CD-1/FEMALE, Target Tissue: Type of Lesion: SKIN: TUMOR, Dose [Carcinogen]: 200 NMOL IN 200 µL ACETONE ONCE, Promoter: 12-O-TETRADECANOYLPHORBOL-13-ACETATE, 16561-29-8
  tumour outcome (control, treated, inhibition, significance): 93%, 93%, 0%, not significant
Carcinogen: 7,12-DIMETHYLBENZ[A]ANTHRACENE, 57-97-6, Dose [Inhibitor]: 0, 3 UMOL IN 200 µL ACETONE 2/WK FOR 20 WK BEGINNING 1 WK POST CARCINOGEN DOSE (STUDY DURATION: 20 WK), Route [Inhibitor]: DERMAL, Species: MOUSE, Strain/Sex: CD-1/FEMALE, Target Tissue: Type of Lesion: SKIN: TUMOR, Dose [Carcinogen]: 200 NMOL IN 200 µL ACETONE ONCE, Promoter: 12-O-TETRADECANOYLPHORBOL-13-ACETATE, 16561-29-8
  tumour outcome (control, treated, inhibition, significance): 93%, 78%, 16%, not significant
Carcinogen: 7,12-DIMETHYLBENZ[A]ANTHRACENE, 57-97-6, Dose [Inhibitor]: 0, 10 UMOL IN 200 µL ACETONE 2/WK FOR 20 WK BEGINNING 1 WK POST CARCINOGEN DOSE (STUDY DURATION: 20 WK), Route [Inhibitor]: DERMAL, Species: MOUSE, Strain/Sex: CD-1/FEMALE, Target Tissue: Type of Lesion: SKIN: TUMOR, Dose [Carcinogen]: 200 NMOL IN 200 µL ACETONE ONCE, Promoter: 12-O-TETRADECANOYLPHORBOL-13-ACETATE, 16561-29-8
  tumour outcome (control, treated, inhibition, significance): 93%, 60%, 35%, not significant

## C[C@]12CCC(=O)C=C1CC[C@@H]1[C@@H]2CC[C@@]2(C)[C@H]1CC[C@]2(C)O
Carcinogen: N-BIS(2-HYDROXYPROPYL)NITROSAMINE, 53609-64-6, Dose [Inhibitor]: 0.03% IN DIET FOR 28 WK BEGINNING POST CARCINOGEN DOSE (STUDY DURATION: 30 WK), Route [Inhibitor]: ORAL, Species: RAT, Strain/Sex: WISTAR/MALE, Target Tissue: Type of Lesion: THYROID: ADENOMA, Dose [Carcinogen]: 210 MG/100 G 1/WK FOR 2 WK, Promoter: NONE USED
  tumour outcome (control, treated, inhibition, significance): 9/13 (69%), 2/15 (13%), 81%, p<0.05
Carcinogen: N-BIS(2-HYDROXYPROPYL)NITROSAMINE, 53609-64-6, Dose [Inhibitor]: 0.03% IN DIET FOR 28 WK BEGINNING POST CARCINOGEN DOSE (STUDY DURATION: 30 WK), Route [Inhibitor]: ORAL, Species: RAT, Strain/Sex: WISTAR/MALE, Target Tissue: Type of Lesion: THYROID: CARCINOMA, Dose [Carcinogen]: 210 MG/100 G 1/WK FOR 2 WK, Promoter: NONE USED
  tumour outcome (control, treated, inhibition, significance): 2/13 (15%), 2/15 (13%), 13%, not calculated
Carcinogen: N-BIS(2-HYDROXYPROPYL)NITROSAMINE, 53609-64-6, Dose [Inhibitor]: 0.15% IN DIET FOR 28 WK BEGINNING POST CARCINOGEN DOSE (STUDY DURATION: 30 WK), Route [Inhibitor]: ORAL, Species: RAT, Strain/Sex: WISTAR/MALE, Target Tissue: Type of Lesion: THYROID: ADENOMA, Dose [Carcinogen]: 210 MG/100 G 1/WK FOR 2 WK, Promoter: NONE USED
  tumour outcome (control, treated, inhibition, significance): 9/13 (69%), 0/15 (0%), 100%, p<0.05
